Measurements published in ChEMBL document CHEMBL1201862, “PubChem BioAssay data set” (2004).
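96-well plates; 48 h exposure; 5 concentrations. Endpoints by linear interpolation between flanking doses. Not reached: highest tested concentration assigned. GI50 = concentration required for 50% inhibition of growth.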 The source made the active and inactive calls. Cut-off read from the data, not from the text of the source: active = GI50 up to about 1.1 µM and inactive = higher.

Assays:
Experiment in all cases: growth of human tumour cells (NCI), 48 h
T47D = system: T47D
SF-268 = system: SF-268
SK-MEL-2 = system: SK-MEL-2
HCT-116 = system: HCT-116
KM12 = system: KM12
RPMI-8226 = system: RPMI-8226
SK-OV-3 = system: SK-OV-3
COLO 205 = system: COLO 205
UACC-257 = system: UACC-257
SR = system: SR
SF-539 = system: SF-539
IGROV-1 = system: IGROV-1
NCI-H460 = system: NCI-H460
RXF 393 = system: RXF 393
UO-31 = system: UO-31
NCI-H23 = system: NCI-H23
SW-620 = system: SW-620
SNB-19 = system: SNB-19
SN12C = system: SN12C

Measured: GI50

CNC(=O)Oc1ccc(-c2cn3cc(OC(=O)NC)ccc3n2)cc1
inactive: T47D 31.3 µM | SF-268 19.3 µM | SK-MEL-2 > 100 µM | HCT-116 33.1 µM | KM12 44 µM | RPMI-8226 19.8 µM | SK-OV-3 > 100 µM | COLO 205 41.4 µM | UACC-257 > 100 µM | SR 21 µM | SF-539 27.6 µM | IGROV-1 54 µM | NCI-H460 39.4 µM | RXF 393 60 µM | UO-31 26.5 µM | NCI-H23 87.3 µM | SW-620 35.1 µM | SNB-19 43.3 µM | SN12C 42.8 µM

Cn1c(-c2ccccc2)cc(-c2cccs2)c1-c1ccsc1
inactive: T47D > 100 µM | SF-268 > 100 µM | SK-MEL-2 > 100 µM | HCT-116 61.5 µM | KM12 80.5 µM | RPMI-8226 64.1 µM | SK-OV-3 > 100 µM | COLO 205 > 100 µM | UACC-257 > 100 µM | SR > 100 µM | SF-539 > 100 µM | IGROV-1 > 100 µM | NCI-H460 > 100 µM | RXF 393 > 100 µM | UO-31 > 100 µM | NCI-H23 > 100 µM | SW-620 > 100 µM | SNB-19 > 100 µM | SN12C > 100 µM

CCN(CC)CCNc1ccc2nnn3c4ccc(OCCN(CC)CC)cc4c(=O)c1c23
inactive: T47D > 100 µM | SF-268 54.1 µM | SK-MEL-2 > 100 µM | HCT-116 30 µM | KM12 32.3 µM | RPMI-8226 26.8 µM | SK-OV-3 > 100 µM | COLO 205 30.6 µM | UACC-257 > 100 µM | SR 19.4 µM | SF-539 96.8 µM | NCI-H460 33.7 µM | RXF 393 62.5 µM | UO-31 89.9 µM | NCI-H23 88.5 µM | SW-620 38.2 µM | SNB-19 48.5 µM | SN12C 32.4 µM

O=C1c2ccccc2-c2nc(/C=C/c3ccccc3)cc3c2c1nc1ccccc13
inactive: T47D 48.8 µM | SF-268 65 µM | SK-MEL-2 21.6 µM | HCT-116 17.4 µM | KM12 18.5 µM | RPMI-8226 15.1 µM | SK-OV-3 34.1 µM | COLO 205 20.5 µM | UACC-257 89.5 µM | SR 1.8 µM | SF-539 27.4 µM | IGROV-1 20.4 µM | RXF 393 29.2 µM | UO-31 29.6 µM | NCI-H23 12.1 µM | SW-620 20 µM | SNB-19 80.5 µM | SN12C 33.2 µM

CCOC(=O)C(NC(=O)Nc1ccccc1F)(OC)C(F)(F)F (stereo not given)
inactive: T47D > 100 µM | SF-268 > 100 µM | SK-MEL-2 > 100 µM | HCT-116 > 100 µM | RPMI-8226 > 100 µM | SK-OV-3 > 100 µM | COLO 205 > 100 µM | UACC-257 > 100 µM | SR > 100 µM | SF-539 > 100 µM | IGROV-1 > 100 µM | RXF 393 > 100 µM | UO-31 > 100 µM | NCI-H23 > 100 µM | SW-620 > 100 µM | SNB-19 > 100 µM | SN12C > 100 µM

Cc1csc(-c2cn(C)c3c2C(=O)C(=N)C=C3O)n1
inactive: T47D 17.7 µM | SF-268 15.8 µM | SK-MEL-2 19.8 µM | HCT-116 8.3 µM | KM12 11.2 µM | RPMI-8226 2.83 µM | SK-OV-3 21.2 µM | COLO 205 4.53 µM | UACC-257 4.26 µM | SR 2.52 µM | SF-539 5.01 µM | IGROV-1 2.31 µM | NCI-H460 3.97 µM | RXF 393 54.1 µM | UO-31 5.9 µM | NCI-H23 2.79 µM | SW-620 9.73 µM | SNB-19 7.38 µM | SN12C 39.1 µM
